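In this assay, cells in 96-well plates receive the compound at five concentrations for 48 hours. Endpoints are linearly interpolated between the surrounding concentrations. At the GI50, growth is halved.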 Active and inactive are the calls of the source. Cut-off read from the data, not from the text of the source: active = GI50 up to about 1.1 µM and inactive = higher.
Columns and labels:
Test in all cases: growth of human tumour cells (NCI), 48 h
[1] = system: OVCAR-5
[2] = system: CCRF-CEM
[3] = system: RPMI-8226
[4] = system: MOLT-4
[5] = system: UACC-62
[6] = system: NCI-H226
[7] = system: SNB-75
[8] = system: T47D
[9] = system: UACC-257
[10] = system: MDA-MB-435
[11] = system: OVCAR-4
[12] = system: NCI-H460
[13] = system: SK-MEL-5
[14] = system: NCI/ADR-RES
[15] = system: OVCAR-3
[16] = system: BT-549
[17] = system: U-251
[18] = system: SF-268
[19] = system: MDA-MB-231
[20] = system: Malme-3M

Measured: GI50

COc1ccc(NCc2cnc3nc(N)nc(N)c3c2C)cc1
inactive: [1] 3.87 µM | [3] 5.96 µM | [6] 33.7 µM | [7] 52 µM | [8] 15 µM | [9] 2.58 µM | [11] > 53.5 µM | [14] > 100 µM | [15] 28.4 µM | [16] > 100 µM
active: [2] 0.57 µM | [4] 0.493 µM | [5] 0.274 µM | [10] 0.428 µM | [12] 0.433 µM | [13] 0.419 µM | [17] 0.555 µM | [18] 0.618 µM | [19] 0.121 µM

OCCCCCCCCCCCOc1ccc(C2OCC3(CC=CCC3)CO2)cc1 (stereo unspecified)
inactive: [1] 19.3 µM | [2] 11 µM | [3] > 100 µM | [4] 34.2 µM | [5] 17.1 µM | [6] 16.6 µM | [20] 18.1 µM | [7] 11.8 µM | [8] 13.3 µM | [9] 16.8 µM | [10] 17.9 µM | [11] 15.7 µM | [12] 16.9 µM | [13] 16.4 µM | [14] 14.7 µM | [15] 19.1 µM | [16] 15 µM | [17] 13.9 µM | [18] 17.9 µM | [19] 16.9 µM

O=C(CC(=O)N1N=C(N(c2ccccc2)c2ccccc2)CC1c1ccccc1)Nc1ccccc1 (stereo unspecified)
inactive: [1] > 100 µM | [2] > 100 µM | [3] > 100 µM | [4] 7.31 µM | [5] 34.4 µM | [6] > 100 µM | [7] 61.4 µM | [8] > 100 µM | [9] > 100 µM | [10] > 100 µM | [11] > 100 µM | [12] > 100 µM | [13] > 100 µM | [14] > 100 µM | [15] > 100 µM | [16] > 100 µM | [17] 56.6 µM | [18] 40.8 µM | [19] 7.82 µM

CCCCC(/C=C\COC1CCCCO1)=C/C(=O)OCC (stereo unspecified)
inactive: [1] > 100 µM | [2] 33.8 µM | [3] 25.9 µM | [4] 25.1 µM | [5] 55.7 µM | [6] > 100 µM | [20] > 100 µM | [7] 48.8 µM | [8] 55.3 µM | [9] > 100 µM | [10] > 100 µM | [11] 61.2 µM | [12] 98.6 µM | [13] 92.5 µM | [14] > 100 µM | [15] 52.7 µM | [16] > 100 µM | [17] 44.8 µM | [18] > 100 µM | [19] > 100 µM

C=C(C)C(CC=C(C)C)CC12CC(CC=C(C)C)C(C)(C)C(CC=C(C)C)(C(=O)C(Cc3ccc(O)c(O)c3)=C1O)C2=O (stereo unspecified)
inactive: [1] > 100 µM | [2] 59.6 µM | [3] > 100 µM | [4] 50.6 µM | [5] 85.3 µM | [6] > 100 µM | [20] 57.8 µM | [7] > 100 µM | [8] > 100 µM | [9] > 100 µM | [10] > 100 µM | [11] > 100 µM | [12] > 100 µM | [13] > 100 µM | [14] > 100 µM | [15] > 100 µM | [16] > 100 µM | [17] > 100 µM | [18] > 100 µM | [19] > 100 µM

CC(C)OC(=O)[C@H]1ON2O[C@H](O[C@@H]3CCCC[C@H]3c3ccccc3)C([Si](C)(C)c3ccccc3)[C@H]3OC(=O)[C@@H]1C32 (stereo partly specified)
inactive: [2] 94 µM | [3] > 100 µM | [4] 18.7 µM | [5] > 100 µM | [6] > 100 µM | [7] > 100 µM | [8] 87.5 µM | [9] > 100 µM | [10] > 100 µM | [12] > 100 µM | [13] > 100 µM | [14] > 100 µM | [15] > 100 µM | [16] > 100 µM | [17] > 100 µM | [18] > 100 µM | [19] > 100 µM

Cc1cc2c(cc1C)[n+]([O-])c(C(=O)/C=C/c1ccc3c(c1)OCO3)c(C)[n+]2[O-]
inactive: [1] > 100 µM | [2] > 100 µM | [3] > 100 µM | [4] > 100 µM | [5] 29.9 µM | [6] 86.5 µM | [20] 73.1 µM | [7] 19.7 µM | [8] > 86.1 µM | [9] > 88.7 µM | [10] > 100 µM | [11] > 100 µM | [12] > 91.8 µM | [13] > 100 µM | [14] 74.6 µM | [15] > 86.1 µM | [16] 69.3 µM | [17] 25.4 µM | [18] 29.4 µM | [19] > 48.9 µM

CC(NC(=O)OCc1ccccc1)NC(=O)OC(C)(C)C (stereo unspecified)
inactive: [1] > 100 µM | [2] > 100 µM | [3] 51.6 µM | [4] 84.9 µM | [5] > 100 µM | [6] > 100 µM | [20] > 100 µM | [7] > 100 µM | [8] > 100 µM | [9] > 100 µM | [10] > 100 µM | [11] > 100 µM | [12] 73.6 µM | [13] > 100 µM | [14] > 100 µM | [15] > 100 µM | [16] > 100 µM | [17] > 100 µM | [18] > 100 µM | [19] > 100 µM

CO/N=C(\C(=O)Nc1cncs1)c1csc(N)n1
inactive: [1] > 10 µM | [2] > 10 µM | [3] 6.27 µM | [4] > 10 µM | [5] > 10 µM | [20] > 10 µM | [7] > 10 µM | [8] > 10 µM | [9] > 10 µM | [10] > 10 µM | [11] > 10 µM | [12] > 10 µM | [13] > 10 µM | [14] > 10 µM | [15] > 10 µM | [16] > 10 µM | [17] > 10 µM | [18] > 10 µM | [19] > 10 µM

CC1(C)C2CCC(CN)(C2)C1N (stereo unspecified)
inactive: [1] > 100 µM | [2] > 100 µM | [3] > 100 µM | [4] > 100 µM | [5] > 100 µM | [6] > 100 µM | [20] > 100 µM | [7] > 54.5 µM | [8] > 100 µM | [9] 14.8 µM | [10] > 100 µM | [11] > 100 µM | [12] 4.49 µM | [13] > 100 µM | [14] > 100 µM | [15] > 100 µM | [16] > 100 µM | [17] > 100 µM | [18] > 100 µM | [19] > 100 µM

CC(C)=C[C@@H]1O[C@H](O)[C@@H]([C@H]2CC[C@@]3(C)[C@@H]4CC[C@H]5C(C)(C)C(=O)CC[C@@]56C[C@@]46CC[C@]23C)[C@@H]1O
inactive: [1] 23.1 µM | [2] 9.93 µM | [3] 3.14 µM | [4] 14.1 µM | [5] 18.1 µM | [6] 11.7 µM | [20] 16.8 µM | [7] 17.7 µM | [8] 14.6 µM | [9] 16.7 µM | [10] 17.7 µM | [11] 18.1 µM | [12] 19.5 µM | [13] 17.7 µM | [14] 16.7 µM | [15] 13.2 µM | [16] 20.1 µM | [17] 17 µM | [18] 17.6 µM | [19] 19.5 µM

COC(=O)[C@H](Cc1ccccc1)NC(=O)N(CCN(CCC#N)C(=O)N[C@H](C(=O)OC)C(C)C)c1ccccc1
inactive: [1] > 100 µM | [2] 33.7 µM | [3] 33.2 µM | [4] 24.3 µM | [5] 48.5 µM | [6] > 100 µM | [20] 43.7 µM | [7] > 100 µM | [8] 49.4 µM | [9] 32.1 µM | [10] 85.3 µM | [11] 53.3 µM | [13] 52.6 µM | [14] > 100 µM | [15] > 100 µM | [16] > 100 µM | [17] > 100 µM | [18] > 100 µM | [19] > 100 µM

CCOC(=O)c1nc2c3c(ncn2n1)Oc1c(c(-c2ccccc2)nn1-c1ccccc1)C3c1ccc(Cl)cc1 (stereo unspecified)
inactive: [1] > 100 µM | [2] > 100 µM | [3] > 100 µM | [5] > 100 µM | [6] > 100 µM | [20] > 100 µM | [7] > 100 µM | [8] > 100 µM | [9] > 100 µM | [10] > 100 µM | [11] > 100 µM | [12] > 100 µM | [13] > 100 µM | [14] > 100 µM | [15] > 100 µM | [16] > 100 µM | [17] > 100 µM | [18] > 100 µM | [19] > 100 µM

BrC(c1cccc2ccccc12)c1cccc2ccccc12
inactive: [1] 27.1 µM | [3] > 100 µM | [4] > 100 µM | [5] 14.6 µM | [6] 17.2 µM | [20] 4.94 µM | [7] 13.5 µM | [8] 29.4 µM | [9] 19.2 µM | [10] 7.23 µM | [11] 17 µM | [12] 15.9 µM | [13] 17.5 µM | [14] 16.5 µM | [15] 11.9 µM | [16] 21.4 µM | [17] 16.9 µM | [18] 12.1 µM | [19] 13.8 µM
